Measured values from US20020114804A1, “A METHOD OF TREATING INFECTION OF SUTURES AND PROSTHETIC DEVICES” (priority 1996, published 2002).

Legend:
Type in all cases: cell-based, human
PMNs [1] = assay: PMN migration through filters coated with fibrinogen or fibronectin
Protocol: (§1) Becton-Dickinson cell culture inserts (pore sizes 3 or 8 μm: Franklin Lakes, N.J.) were overlaid with the following proteins:
Fibrinogen or fibronectin: 0.1 ml of PBS containing 100 μg/ml fibrinogen or fibronectin (New York Blood Center, New York, N.Y.), was placed into each insert (pore size 3 μm). Inserts were incubated at 37° C. for 60 min and washed with 250 μl of PBS. Filters coated with fibrinogen or fibronectin were diffusely fluorescent as visualized by epifluorescent microscopy when incubated with the corresponding antibody [fluorescein-labeled anti-fibrinogen, or anti-fibronectin monoclonal antibodies (Cappel, Malvern, Pa.)], while uncoated filters, or filters incubated with fluorescein-labeled antibody of the opposite specificity, were not.
PMNs were prepared from fresh heparinized blood from healthy adult volunteers by sedimentation on Ficoll-Hypaque gradients. Contaminating red blood cells were removed by hypotonic lysis, as described (7). The purity of PMN isolated by this method is >95% as determined by Wright-Giemsa staining (7). […] The medium in each lower compartment was collected and its content of PMNs was determined using either a Coulter Counter or a hemocytometer. […] Counts are expressed as the average number of PMNs that migrated into the lower compartment. […]

monocytes [2] = assay: Monocyte migration through Matrigel or Matrigel/tenascin coated filters; settings: for Inhibition of chemoattractant-stimulated monocyte migration: Matrigel-coated filters, depending on chemoattractant, human tenascin 5 μg
Excerpt: Mononuclear cells were isolated by centrifugation of heparinized human blood on Ficoll-Hypaque gradients as described (65, 66). The mononuclear cell fraction was resuspended in RMPI 1640 medium supplemented with 10% pooled human serum or autologous serum and used immediately for monocyte migration studies. For some experiments, monocytes were obtained by centrifugation of whole blood or of white blood cells concentrated from a unit of blood (leukopak), on Nycodenz gradients as described (39). More than 90% of the nucleated cells obtained by this Nycodenz method were monocytes, as assessed by their ability to phagocytose IgG-coated red blood cells.
(§2) Cultured monocytes were prepared by allowing 10^7 total mononuclear cells, suspended in 10 ml of RMPI 1640 medium supplemented with 10% pooled human serum (1640+HS), or 10% autologous serum (1640+AS), to adhere to Falcon T-150 tissue culture Petri dishes for 2 h at 37° C. Non-adherent cells were removed by washing, leaving an adherent cell population consisting of greater than 98% monocytes as measured by their capacity to phagocytose IgG coated sheep red blood cells. For migration studies, monocytes were maintained in culture for 24 h in RPMI 1640+HS or AS, and detached from the dishes by gentle pipetting of 10 ml of ice cold phosphate buffered saline (without Ca^2+ or Mg^2+) containing 1.0 mM EDTA. The cells recovered were resuspended in RPMI-1640+HS as described (65).
(§3) Cell culture inserts containing polyethylene terephthalate filters, 8-μm pore size (Becton-Dickinson), were overlaid with 0.1 ml of Matrigel (20-25 μg protein/filter) (Collaborative Research, Bedford, Mass.), and incubated at room temperature until they dried. These Matrigel-coated filters were washed with phosphate buffered saline containing 1.0 mM Mg^2+ and 1.0 mM Ca^2+ (PBS). 0.1 ml of a PBS solution (pH 7.2) containing the indicated amount of purified chick brain tenascin was added to some of the inserts. The filters were incubated at room temperature until they dried. These protein-coated filters were washed again with PBS and used within 12 h for cell migration studies. To prepare collagen I-coated inserts, filters were coated with rat tail collagen I (ICN Biochemicals, Costa, Mesa, Calif.) (400 μg/ml in PBS), by adding 0.1 ml of this solution to an insert and incubating the inserts at room temperature for 24 h. Some of these collagen I-coated filters were then incubated with tenascin as described above.
Monocytes: Cell culture inserts were placed in 16 mm wells containing 0.5 mls of RPMI-1640+HS or AS in the presence or absence of a chemoattractant. 0.5 ml of RPMI-1640+HS or AS serum containing between 2-10×10^5 mononuclear phagocytes was added to the upper chamber of the inserts and the inserts were placed in a humidified CO2 incubator at 37° C. After 24 h the medium in the lower chamber was recovered and its cell content assayed using either a Coulter counter or a hemocytometer. […] Cell counts reported are the average number of cells recovered from the medium in the lower compartment of chemotaxis chambers. Over 90% of the cells in the lower chamber were identified as monocytes based on their morphology, their capacity to phagocytose IgG coated sheep red cells, and their staining with fluorescein-conjugated anti α,β monoclonal antibody (Oncogene Sciences, Uniondale, N.Y.). Unless otherwise indicated, all values are the average of duplicate samples run in parallel in a representative experiment. Each experiment was repeated at least three times with similar results.

PMNs [3] = assay: PMN migration through Matrigel or Matrigel/tenascin coated filters; settings: for Inhibition of chemoattractant-stimulated PMN migration: Matrigel-coated filters, depending on chemoattractant, human tenascin 5 μg
Protocol: Polymorphonuclear leukocytes (PMN), were prepared as described (7) from heparinized human blood by sedimentation on Ficoll-Hypaque gradients. Contaminating red blood cells were removed by hypotonic lysis. The purity of PMN isolated by this method was >95% as determined by Wright-Giemsa staining.
as §3
PMN: 250 μl of PBS [supplemented with 5.5 mM glucose and 0.1% human serum albumin (HSA) (PBSG-HSA)] containing 1×10^6 PMNs was placed in the upper compartment of each insert. 250 μl of PBSG-HSA with or without chemoattractant, as indicated, was added to the bottom compartment. The inserts were incubated for about 4 h at 37° C. in a humidified atmosphere containing 95% air/5% CO2. […] The medium in the lower compartment was collected and its content of PMN determined using a Coulter Counter, as described in Example 1.

PMNs [4] = assay: PMN migration through gels of Matrigel or collagen IV; settings: added to the bottom chamber
Protocol: as §1
Collagen type IV and Matrigel matrices: 0.1 ml PBS containing 100 μg human placental collagen IV (Fluka Chemical Corp., Ronkonkoma, N.Y.), or 80 μg of reconstituted basement membrane proteins (Matrigel, Collaborative Research, Bedford, Mass.), was placed into each insert and allowed to gel at room temperature for 24 hrs.
PMNs were prepared from fresh heparinized blood from healthy adult volunteers by sedimentation on Ficoll-Hypaque gradients. Contaminating red blood cells were removed by hypotonic lysis, as described (7). The purity of PMN isolated by this method is >95% as determined by Wright-Giemsa staining (7). 10^6 PMNs in 250 μl of PBS supplemented with 5.5 mM glucose and 0.1% human serum albumin (PBSG-HSA), were placed in the upper compartment of each insert and incubated for 0-6 hrs at 37° C. in a humidified atmosphere containing 95% air/5% CO2. At the times and concentrations specified, chemoattractants/cytokines were added to the top or bottom compartment in 250 μl of PBSG-HSA. […] The medium in each lower compartment was collected and its content of PMNs was determined using either a Coulter Counter or a hemocytometer. […] Counts are expressed as the average number of PMNs that migrated into the lower compartment. […]

PMNs [5] = assay: Exclusion of rhodamine-labeled polyethylene glycol (Rh-PEG) from zones of adhesion of PMNs; settings: fMLP in combination with IL-8 or LTB4, fibrin
Protocol: Rh-PEG binds avidly to protein-coated surfaces, and can be detected easily by its fluorescence. Individual wells on glass microslides (Carlson Scientific, Peotone, Ill.) were coated with either fibrin, Matrigel or collagen IV in a manner similar to that for coating cell culture inserts except that 20 μl of the various solutions were used per well. 20 μl of PMNs (10^6 cells/ml in PBSG-HSA) were added to each well and PMNs were allowed to adhere for 15 mins at 37°. The cells were washed in PBS, fixed with 3.7% paraformaldehyde in PBS for 10 min, washed again with PBS, and further incubated with 10 kDa Rh-PEG at room temperature for 60 min. The preparation then was washed with PBS and immediately observed by phase and fluorescent microscopy at 400× magnification. Average values from three different experiments are reported as the percentage of PMNs that excluded Rh-PEG from zones of adherence between the cells and the underlying matrix.

PMNs [6] = assay: PMN migration through fibrin gels in Boyden-type chemotaxis chambers
Protocol: as §1
Fibrin gels: 1 Unit of thrombin (a gift from Dr. John Fenton, Albany Medical College, Albany, N.Y.), in 5 μl of PBS was added first to each insert. 0.1 ml phosphate buffered saline supplemented with Ca^2+ and Mg^2+ (PBS) containing 100 μg commercial grade fibrinogen (Calbiochem. Inc., San Diego, Calif.) or purified fibrinogen [a gift from Dr. Jeffery Weitz, (MacMaster University, Hamilton, On.)] was then placed into each 8.2 mm diameter insert on top of the thrombin. The mixture was incubated at 37° C. for 5 min to allow fibrin gel formation (determined by visual inspection). 1 Unit PPACK (Calbiochem Inc., San Diego, Calif.; 10^−5 M final concentration), in 100 μl medium was added to each insert to inhibit thrombin, and gels were washed with 250 μl PBS to remove inactivated thrombin. The fibrin gels formed were about 1 mm thick as measured under a dissecting microscope.
PMNs were prepared from fresh heparinized blood from healthy adult volunteers by sedimentation on Ficoll-Hypaque gradients. Contaminating red blood cells were removed by hypotonic lysis, as described (7). The purity of PMN isolated by this method is >95% as determined by Wright-Giemsa staining (7). 10^6 PMNs in 250 μl of PBS supplemented with 5.5 mM glucose and 0.1% human serum albumin (PBSG-HSA), were placed in the upper compartment of each insert and incubated for 0-6 hrs at 37° C. in a humidified atmosphere containing 95% air/5% CO2. At the times and concentrations specified, chemoattractants/cytokines were added to the top or bottom compartment in 250 μl of PBSG-HSA. At the end of the incubation, the chambers were shaken to dislodge PMNs from the lower surface of the inserts. The medium in each lower compartment was collected and its content of PMNs was determined using either a Coulter Counter or a hemocytometer. Both methods gave similar results. Counts are expressed as the average number of PMNs that migrated into the lower compartment. Unless otherwise indicated, all values reported are the average of six data points from at least 3 independent experiments.

PMNs [7] = assay: PMN migration through fibrin gels with anti-integrin antibodies or synthetic peptides; settings: PMNs incubated with antibody (2 μg/ml) or peptide (1 mg/ml); fMLP 10^−7M, 6 hrs
Protocol: Fibrin gels were formed on filters of cell culture inserts as described in Experimental Peocedures and fMLP (10^−7M) or LTB4 (10^−7M) was added to the medium in the lower chamber. FIG. 10A—10^6 PMNs were pre-incubated in medium containing antibodies against rat or human β1 integrins, or antibodies against the α5 subunit of human α5β1 integrin, or against the human β2 integrin complement receptor 3 (CR3), or against the human β2 integrin p150/95, or against human β3 integrins for 15 min at 4° C. PMNs were placed in the upper chamber of cell culture inserts in the same medium and the inserts were incubated for 6 hrs at 37° C., at which time the number of cells in the lower chamber was determined using a Coulter Counter. […] The mixture was added to the upper chamber of cell culture inserts and the inserts were incubated for 6 hrs at 37° C., at which time the number of cells in the lower chamber was counted as in FIG. 10A.
Fibrin gels: 1 Unit of thrombin (a gift from Dr. John Fenton, Albany Medical College, Albany, N.Y.), in 5 μl of PBS was added first to each insert. […] The mixture was incubated at 37° C. for 5 min to allow fibrin gel formation (determined by visual inspection). […] The fibrin gels formed were about 1 mm thick as measured under a dissecting microscope. […]

PMN or monocytes = assay: Adhesion of PMN or monocytes to tenascin-impregnated Matrigel
monocytes [8] = assay: Monocyte migration through collagen I coated inserts; settings: tenascin added to collagen I
Protocol: as §2
Cell culture inserts containing polyethylene terephthalate filters, 8-μm pore size (Becton-Dickinson), were overlaid with 0.1 ml of Matrigel (20-25 μg protein/filter) (Collaborative Research, Bedford, Mass.), and incubated at room temperature until they dried. These Matrigel-coated filters were washed with phosphate buffered saline containing 1.0 mM Mg^2+ and 1.0 mM Ca^2+ (PBS). 0.1 ml of a PBS solution (pH 7.2) containing the indicated amount of purified chick brain tenascin was added to some of the inserts. The filters were incubated at room temperature until they dried. […]

[9] = added in combination in bottom compartment, 6 hr

## CSCC[C@H](NC=O)C(=O)N[C@@H](CC(C)C)C(=O)N[C@@H](Cc1ccccc1)C(=O)O [fMLP, formyl-methionyl-leucyl-phenylalanine]
PMNs [1]
  PMN migration through filters with adsorbed fibrinogen or fibronectin: promoted PMN migration
Monocytes [2]; Matrigel alone
  Cultured monocytes that migrated through Matrigel-coated inserts: ~15%
  Freshly isolated human monocytes that migrated through Matrigel-coated inserts: About 20%
PMNs [3]; Matrigel alone
  PMNs that migrated through Matrigel-coated inserts: ~10%
PMNs [4]
  PMN migration through gels of Matrigel or collagen IV: stimulated PMN migration
PMNs [5]
  PMNs forming zones of adhesion that excluded 10 kDa Rh-PEG: about 50%
PMNs [6]; 20% human serum in upper and lower compartments
  Effect of serum on PMN migration through fibrin gels in response to the chemoattractant: nor did the presence of serum promote
PMNs [6]; [9]
  Effect on PMN migration through fibrin gels in response to IL-8: reduced
  Effect on PMN migration through fibrin gels in response to LTB4: reduced
PMNs [6]; chemoattractant in lower compartment, zymosan-activated human plasma 2-10%
  PMN migration through fibrin gels (in words): not

## GRGDSP
PMNs [7]
  PMN migration through fibrin gels in response to fMLP: migrated through fibrin gels

## chick brain tenascin: tenascin purified from 14-day embryonic chick brains
PMN or monocytes
  Number of chemoattractant-stimulated PMN or monocytes adhered to tenascin-impregnated Matrigel over Matrigel alone: no increase
Monocytes [2]
  Inhibition of chemoattractant-stimulated monocyte migration: 65-80%
Monocytes [2]; amount added to Matrigel-coated insert, cultured monocytes, 24 h
  Amount causing half maximal inhibition of TNF-stimulated monocyte migration: about 0.75 μg
Monocytes [2]; tenascin added to Matrigel
  Effect on monocyte migration through Matrigel in response to TNF, fMLP or LTB4: significantly reduced
  Effect on monocytes that migrated in the absence of chemoattractant: no significant effect
PMNs [3]
  Inhibition of chemoattractant-stimulated PMN migration: 65-80%
PMNs [3]; tenascin added to Matrigel
  Effect on PMN migration through Matrigel in response to TNF, fMLP or LTB4: significantly reduced
  Effect on PMN that migrated across Matrigel in the absence of chemoattractant: further reduced
Monocytes [8]
  Reduction of TNF- or LTB4-stimulated monocyte migration through collagen I coated inserts: at least 60%

## human tenascin: tenascin obtained from cultured human glioma cells, from GIBCO-BRL
Monocytes [2]
  Inhibition of chemoattractant-stimulated monocyte migration: at least 50%
PMNs [3]
  Inhibition of chemoattractant-stimulated PMN migration: at least 50%
